{"source": "patent US9340575B2", "about": "“Agonists and antagonists of the urotensinergic system” (INSTITUT NATIONAL DE LA RECHERCHE SCIENTIFIQUE, priority 2011, dated 2016)", "key": {"rat thoracic aorta rings [1]": {"tested_on": "rat thoracic aorta rings", "assay_type": "cell-based", "conditions": "percentage of KCl (40 mM) contraction; at 10^−5.5M", "method": "Binding and functional experiments were performed at least in triplicate and data, expressed as mean±S.E.M, were analyzed using the Prism software (Graph Pad Software, San Diego, Calif.). In all experiments, n represents the total number of animals studied or individual assays performed. The EC50, pEC50, pIC50 values as well as the Emax value were determined from the concentration-response curves using a sigmoidal dose-response fit with variable slope. […] The slope is calculated from the double reciprocal plot of equiactive concentrations of agonist in the presence and absence of antagonist."}, "rat isolated aorta": {"tested_on": "rat isolated aorta", "test": "Reversal of hUII-induced contractile tone in rat isolated aorta", "assay_type": "cell-based", "conditions": "tone established with 4 nM hUII (EC80)", "method": "(§1) Male rats (Sprague-Dawley, 250-300 g) were killed by CO2 asphyxiation. The thoracic aorta was then cleared of surrounding tissues and excised from aortic arch to the diaphragm. From each vessel, conjunctive tissues were removed and the clean vessel was cut into 4 mm rings. The endothelium was removed by gently rubbing the vessel's intimal surface. All preparations were placed in 5 ml organ baths filled with oxygenated normal Krebs-Henselheit solution. Contractile responses to 40 mM KCl were used as control at the beginning and at the end of each experiment. Agonistic activity was measured by increasing the concentration of the peptide in the organ chamber (3×10^−11-3×10^−6 M). For antagonist behaviour, thoracic aortic rings were first exposed to URP derivative over a period of 15 min, and then cumulative concentration-response curves to hUII, URP or ET-1 (10^−10-3×10^−6 M) were constructed. The amplitude of the contraction induced by each concentration of peptide was expressed as a percentage of the KCl-induced contraction. Finally, the ability of the antagonist to reverse the hUII-induced contraction was also evaluated. Vessels were pre-contracted with 4 nM hUII (pre-determined EC80) and after the maximum contraction was attained, contractile tone was reversed by adding increasing log unit concentrations of URP derivative."}, "anaesthetized rats": {"tested_on": "anaesthetized rats", "test": "Hemodynamic assessment (arterial blood pressure) in anaesthetized rats", "assay_type": "in vivo, rat", "conditions": "for Intrinsic effect on blood pressure: anaesthetized rats", "method": "Male Sprague-Dawley rats, weighing 350-400 g, were anaesthetized by isoflurane inhalation delivered in 100% oxygen (1 l/min) from an Ohmeda Tec 4 anaesthetic vaporizer (Somatechnology, Inc., Bloomfield, Conn., USA). Anaesthesia was maintained by mask inhalation of isoflurane vaporized at concentrations of up to 3% in the induction phase, at 1.5% during acute surgical procedures and at 0.8-1.0% during experimental observations. […]. […] A period of stabilisation of 30 min was observed and the following experimental protocols were then performed and arterial blood pressure was evaluated. During isoflurane inhalation, no breathing complications or changes in blood pressure were observed. […].\nIn a preliminary study, individual rats received a single i.v. injection of hUII ranging from 1 to 30 nmol/kg. A dose-response curve, reflecting the effect of hUII on the change in blood pressure, was then determined.\nIn this set of experiments, five groups of rats were used. […] […]. Hemodynamic changes were continuously captured by the pressure probe over a period of 1 h. The maximum rise and the maximum drop in blood pressure was determined and analyzed using the PowerLab software (ADInstruments, Colorado Springs, Colo., USA).\nIn the control group, the rats received two doses of hUII (10 nmol/kg) with a 30 min interval between the first and second injection."}, "rat thoracic aorta rings [2]": {"tested_on": "rat thoracic aorta rings", "test": "Effect on ET-1-induced contraction of rat aortic ring", "assay_type": "cell-based", "conditions": "[Bip^4]URP 10^−6M", "method": "as §1"}, "[3]": {"biological_target": "T1, human urotensin II receptor (UT) (Homo sapiens, UniProt Q9UKP6)", "T1 construct": "expressed in transfected cells; host or cells: CHO cells (CHO-UT), stably transfected, G418 selection", "T1 sequence (Q9UKP6 1-389)": "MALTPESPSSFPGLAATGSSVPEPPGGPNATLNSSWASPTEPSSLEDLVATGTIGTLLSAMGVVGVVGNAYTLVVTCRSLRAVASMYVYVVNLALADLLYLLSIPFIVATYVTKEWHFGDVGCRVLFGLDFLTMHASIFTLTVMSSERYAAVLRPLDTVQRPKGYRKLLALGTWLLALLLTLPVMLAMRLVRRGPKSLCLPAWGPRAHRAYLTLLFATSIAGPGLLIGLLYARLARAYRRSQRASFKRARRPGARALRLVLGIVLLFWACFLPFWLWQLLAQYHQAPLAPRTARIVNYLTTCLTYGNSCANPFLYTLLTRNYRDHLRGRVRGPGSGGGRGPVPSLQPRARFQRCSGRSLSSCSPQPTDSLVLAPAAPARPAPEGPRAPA", "test": "Competitive radioligand binding on CHO-UT cells", "conditions": "for IC50: recombinant human UT", "method": "Transfected CHO cells expressing the human urotensin receptor (CHO-UT) were maintained in Ham-F12 medium with 10% fetal bovine serum (FBS), 2 mM L-glutamine, 100 UI/mL each of penicillin and streptomycin, and 400 μg/mL G418. […] Binding assays were following known literature procedures using CHO cells stably transfected with hGPR14. […] After 90 min of incubation at room temperature, cells were washed, lysed, and the cell-bound radioactivity was quantified using a γ-counter. […] The cells were then washed, lysed, and the radioactivity counted on a γ-counter (1470 Automatic Gamma Counter, Perkin Elmer). Binding and functional experiments were performed at least in triplicate and data, expressed as mean±S.E.M, were analyzed using the Prism software (Graph Pad Software, San Diego, Calif.). In all experiments, n represents the total number of animals studied or individual assays performed. The EC50, pEC50, pIC50 values as well as the Emax value were determined from the concentration-response curves using a sigmoidal dose-response fit with variable slope. […] The slope is calculated from the double reciprocal plot of equiactive concentrations of agonist in the presence and absence of antagonist."}, "[4]": {"conditions": "1000 nmol/kg bolus, 30 min before hUII 10 nmol/kg"}}, "note": "“Also recorded” adds a separate entry of the source."}
{"smiles": "CC(C)[C@H](NC(=O)[C@@H]1CSSC[C@H](NC(=O)[C@H](C)N)C(=O)N[C@@H](Cc2ccccc2)C(=O)N[C@@H](Cc2ccc(-c3ccccc3)cc2)C(=O)N[C@@H](CCCCN)C(=O)N[C@@H](Cc2ccc(O)cc2)C(=O)N1)C(=O)O", "note": "[[Bip^4]URP, H-Ala-Cys-Phe-Bip-Lys-Tyr-Cys-Val-OH]", "values": [{"measurement": "Aortic Ring contraction Emax (%), maximum efficacy at 10^−5.5M", "setting": "rat thoracic aorta rings [1]", "result": 8.7, "unit": "%"}, {"measurement": "Suppression of contractile tone", "setting": "rat isolated aorta", "result": 92, "unit": "%"}, {"measurement": "pIC50 for reversal of contractile tone", "setting": "rat isolated aorta", "result": "7.72±0.15"}, {"measurement": "Effect on hUII hemodynamic profile", "setting": "anaesthetized rats; 0.1 μmol/kg", "result": "no effect"}, {"measurement": "Intrinsic effect on blood pressure", "setting": "anaesthetized rats; 100 nmol/kg (0.1 μmol/kg) i.v.", "result": "No effect"}, {"measurement": "Intrinsic effect on blood pressure", "setting": "anaesthetized rats; 100 nmol/kg (0.1 μmol/kg) i.v., listed as urocontrin", "result": "no detectable effect"}, {"measurement": "Intrinsic effect on blood pressure", "setting": "anaesthetized rats; 1000 nmol/kg (1 μmol/kg) i.v.", "result": "hypotensive effect comparable with that of hUII"}, {"measurement": "Intrinsic effect on blood pressure", "setting": "anaesthetized rats; 1000 nmol/kg (1 μmol/kg) i.v., listed as urocontrin", "result": "hypotension comparable with that of hUII"}, {"measurement": "Effect on hUII hypotensive action", "setting": "anaesthetized rats; [4]", "result": "significantly reduced"}, {"measurement": "Effect on hUII pressor effect", "setting": "anaesthetized rats; [4]", "result": "keeping intact"}, {"measurement": "Effect on hUII pressor effect", "setting": "anaesthetized rats; 1000 nmol/kg bolus, 30 min before hUII 10 nmol/kg, listed as urocontrin", "result": "preserving"}, {"measurement": "Effect on biphasic response induced by URP", "setting": "anaesthetized rats; 1000 nmol/kg, URP 10 nmol/kg", "result": "no effect"}, {"measurement": "Response to a second hUII injection after pre-treatment", "setting": "anaesthetized rats; [Bip^4]URP 1000 nmol/kg 30 min before two hUII doses (10 nmol/kg, 30 min interval)", "result": "complete absence of a response"}, {"measurement": "Effect on ET-1-induced contraction (in words)", "setting": "rat thoracic aorta rings [2]", "result": "not able to alter the concentration-response curves; also recorded: did not inhibit or potentiate"}, {"measurement": "IC50", "setting": "[3]; Binding (125I-URP) IC50 (nM), radioligand 125I-URP", "result": 339, "unit": "nM"}, {"measurement": "IC50", "setting": "[3]; Binding (125I-hUII) IC50 (nM), radioligand 125I-hUII", "result": 386, "unit": "nM"}, {"measurement": "Displacement of both radioligands (125I-hUII and 125I-URP)", "setting": "[3]; CHO-UT cells", "result": 100, "unit": "%"}]}
